# Earlier results, collected in patent publication US20040253138A1, “Plasmon enhanced body treatment and bacterial management” (American Environmental Systems, Inc., priority 2003, published 2004).
# Like-named read-outs stand apart in the source and are kept apart here.
# Test system: E. coli (E. coli-B (SR-9) and E. coli K-12)
# Settings: one hour exposure
SMILES,logs of inactivation (30 ppm hydrogen peroxide),logs of inactivation (30 ppb silver)
OO [hydrogen peroxide],0.65 logs,–
[Ag+] [silver],–,2.87 logs
